Experimental data published in US4271163A, “Novel 3,4-diaza-bicyclo[4.1.0]hept-2-en-5-ones, their preparation, and therapeutic agents containing these compounds” (BASF Aktiengesellschaft, priority 1978, dated 1981).
≈ marks a conversion by molar mass, not a printed value.

Assays:
human thrombocytes = assay: Inhibition of the collagen-induced aggregation of human thrombocytes in vitro; type: cell-based; details: human thrombocytes in vitro; for EC50: 10 min, concentration which inhibits the collagen-induced aggregation by 50%, 10 minutes incubation, read-out: Inhibition of collagen-induced thrombocyte aggregation in vitro, EC 50%; for Inhibition of aggregation, R.A. (relative activity): acetylsalicylic acid = 1.00
Experimental: 1. Inhibition of the collagen-induced aggregation of human thrombocytes in vitro.
(§1) Thrombocyte-rich plasma is obtained by centrifuging venous citrate blood (300 g, 10 minutes duration at 4° C.). The photometric measurement of the thrombocyte aggregation is carried out with addition of MgCl2 (final concentration 10 millimoles/l) and of collagen Stago (final concentration 0.02 mg/ml) in a Born Mk 3 aggregometer. The maximum extinction change/sec is used as a measure of the aggregation.
The aggregation-inhibiting activity of the substances is tested after an incubation time of 10 minutes.
The EC 50% is taken to be the concentration causing 50% inhibition of aggregation.
(§2) The effective doses or effective concentrations were calculated from the linear relationships between the logarithm of the dose or concentration and the logarithm of the effect, by means of regression analysis.
(§3) Acetylsalicylic acid was used as the reference substance for the inhibition of thrombocyte aggregation and dihydralazine for the anti-hypertensive effect.

rat thrombocytes = assay: Inhibition of the collagen-induced aggregation of rat thrombocytes ex vivo; type: in vivo, rat (male Sprague-Dawley); details: rats; for ED (33%): Rattus norvegicus, dose which inhibits the collagen-induced aggregation by 33%, read-out: Inhibition of thrombocyte aggregation, ED 33%; for ED (33%) / Inhibition of thrombocyte aggregation, R.A. (relative activity): oral administration; for Inhibition of thrombocyte aggregation, R.A. (relative activity): acetylsalicylic acid = 1.00; for Inhibition of thrombocyte aggregation after oral administration in vivo (in words): versus acetylsalicylic acid
Experimental: as §1
2. Inhibition of the collagen-induced aggregation of rat thrombocytes ex vivo.
The substances are administered orally to groups of 10-15 male Sprague-Dawley rat weighing 200-250 g. 1-4 hours after administration, blood is taken under ether narcosis and thrombocyte-rich plasma is obtained by centrifuging. The aggregation after addition of collagen is measured as indicated above. The ED 33% is determined as the dose which inhibits the collagen-induced thrombocyte aggregation by 33%.
as §2, §3

narcotized rats = assay: Anti-hypertensive effect on narcotized rats; type: in vivo, rat (male Sprague-Dawley); details: rats under urethane narcosis, intraperitoneal; for ED (20%): Rattus norvegicus, ip, dose which lowers the blood pressure by 20%, read-out: Reduction in blood pressure, ED 20%; for Reduction in blood pressure, R.A. (relative activity): dihydralazine = 1.00
Experimental: 3. Anti-hypertensive effect on narcotized rats.
To test the anti-hypertensive effect, the substances are administered intraperitoneally to groups of 3-5 male Sprague-Dawley rats weighing 240-280 g, under urethane narcosis ([…] given intraperitoneally).
The measurement of the blood pressure in the carotid artery is carried out by means of Statham transducers. The ED 20% is determined as the dose which lowers the mean carotid blood pressure by 20%.
as §2, §3

[1] = tested on: spontaneously hypertonic rats; assay: Anti-hypertensive effect on spontaneously hypertonic rats; type: in vivo, rat (male spontaneously hypertonic Okamoto); details: for ED (20%): Rattus norvegicus, 2 h, dose which lowers the blood pressure by 20% compared to the control group; for ED (20%) / Anti-hypertensive effect, R.A.: oral administration; for Anti-hypertensive effect, R.A.: dihydralazine = 1.00
Experimental: 4. Anti-hypertensive effect on spontaneously hypertonic rats.
The substances are administered orally to groups of 4-8 male spontaneously hypertonic Okamoto rats weighing 270-340 g. Before, and 2 hours after, the administration, the systolic blood pressure is measured non-surgically by means of piezo-electric crystal sensors.
The ED 20% is determined as the dose which lowers the systolic pressure by 20%, taking into account the values found with untreated control animals.
as §2, §3

Row | Structure (SMILES) | EC50 (human thrombocytes) [µg/mL] | Inhibition of aggregation, R.A. (relative activity) (human thrombocytes) | ED (33%) (rat thrombocytes) [mg/kg] | Inhibition of thrombocyte aggregation, R.A. (relative activity) (rat thrombocytes) | Inhibition of thrombocyte aggregation after oral administration in vivo (in words) (rat thrombocytes) | ED (20%) (narcotized rats) [mg/kg] | Reduction in blood pressure, R.A. (relative activity) (narcotized rats) | ED (20%) [1] [mg/kg] | Anti-hypertensive effect in spontaneously hypertonic rats after oral administration (in words) [1] | Anti-hypertensive effect, R.A. [1]
1 | CCC(=O)Nc1ccc(C2=NNC(=O)C3CC23)cc1 (stereo not drawn) [Example 11, 2-(p-propionylaminophenyl)-3,4-diaza-bicyclo[4.1.0]hept-2-en-5-one] | 0.28 (≈ 1.09 µM) | 1760 | 1.48 | 90.54 | far surpasses the effect of acetylsalicylic acid | 0.134 | 2.52 | 10 | demonstrable | 0.69
2 | O=C(Nc1ccc(C2=NNC(=O)C3CC23)cc1)C1CC1 (stereo not drawn) [Example 13, 2-(p-cyclopropylcarbonylaminophenyl)-3,4-diaza-bicyclo[4.1.0]hept-2-en-5-one hemihydrate] | 5.57 | 89 | 2.5 | 53.60 | far surpasses the effect of acetylsalicylic acid | 0.0465 | 7.25 | 2.78 | demonstrable | 2.46
3 | CC(Cl)C(=O)Nc1ccc(C2=NNC(=O)C3CC23)cc1 (stereo not drawn) [Example 20, 2-[p-(2-chloropropionylamino)-phenyl]-3,4-diaza-bicyclo[4.1.0]hept-2-en-5-one] | 0.99 (≈ 3.39 µM) | 499 | 3.74 | 35.83 | far surpasses the effect of acetylsalicylic acid | 0.278 | 1.21 | 10 | demonstrable | 0.69
